# Data as given in patent publication US20230301948A1, “REDUCTION OF VIRAL INFECTIONS” (PHOXGEN LIMITED, priority 2020, published 2023).
# Like-named read-outs stand apart in the source and are kept apart here. Marks after values point to notes of the source that are not given here.
# Columns and labels:
# [1] = target: T1, cathepsin L protease (Homo sapiens, UniProt P07711); format: biochemical
# T1 construct: purchased BPS Bioscience
# [2] = target: T2, SpikeS1-ACE2 interaction (UniProt P0DTC2+Q9BYF1); assay: biochemical; format: binding, SARS-CoV-2; conditions: read-out: Percentage inhibition (wrt 100% initial activity)
# T2 construct: Rabbit Fc-tagged SARS-Cov-2 Spike S1 RBD; purchased Cayman Chemical Company
# T1 sequence (P07711 114-333): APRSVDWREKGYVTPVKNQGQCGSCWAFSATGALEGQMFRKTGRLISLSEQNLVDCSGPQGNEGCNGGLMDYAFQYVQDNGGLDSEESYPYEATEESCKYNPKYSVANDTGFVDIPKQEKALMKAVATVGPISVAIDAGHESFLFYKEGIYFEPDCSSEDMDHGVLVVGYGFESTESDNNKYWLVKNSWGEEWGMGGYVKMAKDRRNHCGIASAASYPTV
smiles,measurement,setting,value
"CC(C)C[C@H](NC(=O)[C@H]1O[C@@H]1C(=O)O)C(=O)NCCCCN=C(N)N [Composition E-64, E-64]",Percentage inhibition,[1]; 0.0001 µM,-15.5%
same,Percentage inhibition,[1]; 0.001 µM,-1.1%
same,Percentage inhibition,[1]; 0.01 µM,17.2 ** %
same,Percentage inhibition,[1]; 0.1 µM,56.3 ** %
Cc1cc(O)c2c(c1)C(=O)c1cc(O)cc(O)c1C2=O [Emodin],inhibition at 0.01 µg/mL,[2]; 0.01 µg/ml,35.5%
same,inhibition at 0.1 µg/mL,[2]; 0.1 µg/ml,38.9%
same,inhibition at 1 µg/mL,[2]; 1 µg/ml,44.3%
same,inhibition at 10 µg/mL,[2]; 10 µg/ml,48.9%
same,inhibition at 50 µg/mL,[2]; 50 µg/ml,62.8%
